In ChEMBL document CHEMBL1781921, “Concise synthesis and CDK/GSK inhibitory activity of the missing 9-azapaullones” (Bioorg Med Chem Lett, 2010) one finds IC50 data, which are given here for 5 molecules.

The target of one assay is CDK9/cyclin T1 (Homo sapiens, UniProt P50750). The experiment in a line: Inhibition of human recombinant CDK9/cyclin T expressed in insect cells assessed as incorporation of [gamma-33P]-ATP in to pRB fragment (773 to 928) substrate after 30 mins by scintillation counting.
CDK9/cyclin T1, sequence (O60563 whole entry, the tested form may be a part): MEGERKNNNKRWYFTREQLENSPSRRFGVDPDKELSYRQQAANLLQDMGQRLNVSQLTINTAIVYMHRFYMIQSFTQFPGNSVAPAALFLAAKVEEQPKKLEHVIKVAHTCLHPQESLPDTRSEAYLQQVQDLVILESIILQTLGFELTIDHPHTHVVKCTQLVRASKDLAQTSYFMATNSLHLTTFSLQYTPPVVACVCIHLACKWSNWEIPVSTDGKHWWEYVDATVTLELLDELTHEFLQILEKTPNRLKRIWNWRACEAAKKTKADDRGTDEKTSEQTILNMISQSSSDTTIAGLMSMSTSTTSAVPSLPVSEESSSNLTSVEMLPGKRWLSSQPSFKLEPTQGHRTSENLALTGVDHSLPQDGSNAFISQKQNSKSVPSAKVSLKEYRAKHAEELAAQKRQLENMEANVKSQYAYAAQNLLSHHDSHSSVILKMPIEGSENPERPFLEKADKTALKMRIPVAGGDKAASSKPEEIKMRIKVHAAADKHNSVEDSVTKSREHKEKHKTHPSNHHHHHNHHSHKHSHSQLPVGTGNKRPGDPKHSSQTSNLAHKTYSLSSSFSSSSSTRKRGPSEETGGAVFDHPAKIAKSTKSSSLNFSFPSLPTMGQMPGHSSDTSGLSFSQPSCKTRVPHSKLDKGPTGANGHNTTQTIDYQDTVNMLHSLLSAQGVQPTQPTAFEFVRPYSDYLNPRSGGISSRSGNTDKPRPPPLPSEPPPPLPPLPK
CDK9/cyclin T1, sequence (P50750 whole entry, the tested form may be a part): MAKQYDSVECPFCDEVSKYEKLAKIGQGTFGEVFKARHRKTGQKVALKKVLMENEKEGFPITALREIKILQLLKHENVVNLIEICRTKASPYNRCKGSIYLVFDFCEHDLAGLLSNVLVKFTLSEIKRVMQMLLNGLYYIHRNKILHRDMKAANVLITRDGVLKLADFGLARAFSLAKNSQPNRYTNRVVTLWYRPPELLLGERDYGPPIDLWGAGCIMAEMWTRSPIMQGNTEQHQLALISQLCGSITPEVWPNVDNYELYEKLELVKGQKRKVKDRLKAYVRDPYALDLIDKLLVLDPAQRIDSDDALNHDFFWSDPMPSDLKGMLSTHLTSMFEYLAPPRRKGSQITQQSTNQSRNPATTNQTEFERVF
Assay [1] has as its target Cyclin-dependent kinase 2/cyclin A (Homo sapiens, UniProt P24941). The experiment in a line: Inhibition of human recombinant CDK2/cyclin A assessed as incorporation of [gamma-33P]-ATP into histone H1 substrate after 30 mins by scintillation counting. The assay is classed as protein-complex assay.
Assay [2] can be described thus: Inhibition of M-phase starfish oocytes CDK1/cyclin B assessed as incorporation of [gamma-33P]-ATP into histone H1 substrate after 30 mins by scintillation counting. The assay is classed as cell-based, Asteroidea. Particulars: oocyte.
The target in assay [3] is T1, Glycogen synthase kinase 3 (Plasmodium falciparum (isolate 3D7), UniProt O77344).
T1 sequence (O77344 whole entry): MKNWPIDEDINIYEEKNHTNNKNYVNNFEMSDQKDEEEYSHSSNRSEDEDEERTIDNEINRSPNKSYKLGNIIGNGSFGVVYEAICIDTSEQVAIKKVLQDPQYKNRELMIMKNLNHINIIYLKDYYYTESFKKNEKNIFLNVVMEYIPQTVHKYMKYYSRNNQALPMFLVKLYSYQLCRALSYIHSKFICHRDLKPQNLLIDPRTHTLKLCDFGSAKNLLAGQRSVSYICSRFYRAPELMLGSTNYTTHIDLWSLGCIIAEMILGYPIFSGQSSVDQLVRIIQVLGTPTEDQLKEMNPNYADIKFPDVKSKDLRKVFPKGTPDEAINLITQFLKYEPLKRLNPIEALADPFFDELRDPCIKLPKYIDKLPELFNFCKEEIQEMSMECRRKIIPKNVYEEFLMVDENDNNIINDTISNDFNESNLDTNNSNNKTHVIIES
Briefly: Inhibition of Plasmodium falciparum GSK3.

The target of assay [4] is Cyclin-dependent kinase 5/CDK5 activator 1 (Homo sapiens, UniProt Q00535). The experiment in a line: Inhibition of human recombinant CDK5/p25 assessed as incorporation of [gamma-33P]-ATP into histone H1 substrate after 30 mins by scintillation counting. It is filed as protein-complex assay.
Cyclin-dependent kinase 5/CDK5 activator 1, sequence (Q00535 whole entry, canonical isoform): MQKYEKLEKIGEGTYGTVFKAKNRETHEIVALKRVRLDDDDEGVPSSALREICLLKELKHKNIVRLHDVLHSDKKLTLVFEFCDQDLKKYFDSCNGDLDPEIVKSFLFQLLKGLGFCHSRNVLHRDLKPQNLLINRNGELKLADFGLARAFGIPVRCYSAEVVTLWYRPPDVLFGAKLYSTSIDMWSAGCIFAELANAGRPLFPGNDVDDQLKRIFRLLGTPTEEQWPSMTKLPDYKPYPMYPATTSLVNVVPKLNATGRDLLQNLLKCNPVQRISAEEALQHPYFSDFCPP
Cyclin-dependent kinase 5/CDK5 activator 1, sequence (Q15078 whole entry, further chain, canonical isoform): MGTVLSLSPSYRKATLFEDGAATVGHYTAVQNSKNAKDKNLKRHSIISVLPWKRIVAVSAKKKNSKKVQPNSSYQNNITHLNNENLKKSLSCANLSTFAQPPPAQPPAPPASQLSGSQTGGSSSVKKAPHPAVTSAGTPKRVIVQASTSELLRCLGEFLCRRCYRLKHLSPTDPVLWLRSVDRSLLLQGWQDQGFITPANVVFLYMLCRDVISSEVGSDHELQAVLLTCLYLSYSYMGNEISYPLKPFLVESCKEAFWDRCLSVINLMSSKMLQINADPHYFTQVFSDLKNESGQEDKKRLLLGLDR
For assay [5], the target named is T2, Casein kinase I isoform alpha (Sus scrofa, UniProt O19175).
T2 sequence (O19175 whole entry): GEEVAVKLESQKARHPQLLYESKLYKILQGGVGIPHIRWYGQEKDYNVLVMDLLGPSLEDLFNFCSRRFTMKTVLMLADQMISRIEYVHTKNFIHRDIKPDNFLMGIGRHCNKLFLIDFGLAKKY
Briefly: Inhibition of porcine brain CK1 assessed as incorporation of [gamma-33P]-ATP into RRKHAAIGpSAYSITA substrate after 30 mins by scintillation counting.

Assay [6] deals with Dual specificity protein kinase CLK1 (Homo sapiens, UniProt P49759). The experiment in a line: Inhibition of CLK1.
Dual specificity protein kinase CLK1, sequence (P49759 whole entry, the tested form may be a part): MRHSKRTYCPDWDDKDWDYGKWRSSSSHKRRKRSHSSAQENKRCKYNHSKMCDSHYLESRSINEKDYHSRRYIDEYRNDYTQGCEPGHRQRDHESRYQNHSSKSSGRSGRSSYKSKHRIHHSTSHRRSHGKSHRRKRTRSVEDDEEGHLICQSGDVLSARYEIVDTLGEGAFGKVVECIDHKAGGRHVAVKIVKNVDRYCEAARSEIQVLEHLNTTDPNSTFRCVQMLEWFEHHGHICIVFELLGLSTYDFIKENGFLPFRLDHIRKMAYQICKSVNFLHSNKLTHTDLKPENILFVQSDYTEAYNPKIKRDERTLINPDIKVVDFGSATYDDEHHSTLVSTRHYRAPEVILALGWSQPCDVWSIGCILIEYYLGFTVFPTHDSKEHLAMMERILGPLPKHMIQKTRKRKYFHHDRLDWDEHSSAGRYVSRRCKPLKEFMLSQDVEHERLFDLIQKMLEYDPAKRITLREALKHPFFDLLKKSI
The target of assay [7] is Dual specificity tyrosine-phosphorylation-regulated kinase 1A (Rattus norvegicus, UniProt Q63470). The experiment in a line: Inhibition of rat recombinant GST-fused DYRK1A expressed in Escherichia coli assessed as assessed as incorporation of [gamma-33P]-ATP into myelin basic protein after 30 mins by scintillation counting.

In the case of `O=C1Cc2c([nH]c3cc[n+]([O-])cc23)-c2ccccc2N1`, the IC50 (commonly the point on the concentration scale where inhibition reaches its midpoint) at CDK9/cyclin T1 was 0.24 µM; in assay [1], 6.2 µM; in assay [2], 5.7 µM; in assay [3] it was greater than 10 µM; in assay [4] it was 7.3 µM; in assay [5], greater than 10 µM. For the same molecule, the half-maximal inhibitory concentration (IC50) in assay [6] and in assay [7] was greater than 10 µM throughout.

Regarding `O=C1Cc2c([nH]c3cc[n+](Cc4ccccc4)cc23)-c2ccccc2N1`, the half-inhibitory concentration (IC50) on CDK9/cyclin T1 was 7.4 µM; in assay [1], greater than 10 µM; in assay [2], greater than 10 µM; in assay [3] it was greater than 10 µM; in assay [4], greater than 10 µM; in assay [5], greater than 10 µM. The IC50 in assay [6] and in assay [7] was greater than 10 µM each time.

For `O=C1Cc2c([nH]c3ccc(Br)cc23)-c2ccccc2N1` [KENPAULLONE], the IC50 was 0.064 µM at CDK9/cyclin T1; 0.5 µM in assay [2]; greater than 10 µM in assay [3]; greater than 10 µM in assay [5]; greater than 10 µM in assay [6]; greater than 10 µM in assay [7].

With `O=C1Cc2c([nH]c3ccccc23)-c2ccccc2N1` [PAULLONE], the IC50 was determined as 0.81 µM on CDK9/cyclin T1, 2.7 µM in assay [1] and 3 µM in assay [2].

Consider `O=C1Cc2c([nH]c3ccncc23)-c2ccccc2N1`, for which the IC50 was 0.22 µM at CDK9/cyclin T1; 2.1 µM in assay [1]; greater than 10 µM in assay [3]; 3 µM in assay [4]; greater than 10 µM in assay [5]; greater than 10 µM in assay [6].
